Like-named read-outs stand apart in the source and are kept apart here.
Experiments:
TLR4/NF-κB activation = experiment: LPS-induced TLR4/NF-κB activation in RAW-WT cells; type: cell-based
STING = STING (Homo sapiens, UniProt Q86WV6); experiment: STING antagonist activity, cell-based ISG54 promoter-reporter luciferase measurement of IRF activity (THP-1 dual / RAW-ISG cells); settings: Antagonist Activity of Exemplary Compounds, cell line and agonist not given
In short: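 THP-1 dual or RAW-ISG cells (50,000/well) pretreated 1 h with compound (10 to 0.01 uM), then stimulated with SB 11285 (30 nM or 1 μM) or 2′3′-cGAMP (10 ug/mL or lipo mixture) for 18–20 h at 37° C. IRF-driven luciferase read by Quanti-Luc; % inhibition versus untreated or DMSO wells, IC50 by curve fit.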

[1] = system: RIG-I-IRF/NF-κB signaling pathway; experiment: Inhibition of 3p-hpRNA-induced RIG-I-IRF/NF-κB signaling; type: cell-based
Description: (§1) Evaluation of activity of compounds in THP-1 cells for their inhibition of STING, LPS, ppp-dsRNA & Poly IC induction: THP-1 cells were treated with different concentrations (10 uM to 0.01 uM) of Compounds for 1 h followed by STING/TLR3/TLR4/RIG-I/TLR7/9 activation by corresponding agonists. Lipofectamine (LTX) was used along with dsRNA, 2′-3′cGAMP & VACV-70. The cells were then incubated for 20 hours @ 37° C. before measuring IRF activation by using Quanti-Luc. The % inhibition was calculated as 100-[(luminescence of COI treated well/luminescence of non COI treated well)/100]×100. Cytotoxicity was measured by using Cell Titer Glo.

[2] = system: cGAS-STING-IRF/NF-κB signaling pathway; experiment: Inhibition of dsDNA-induced cGAS-STING-IRF/NF-κB signaling; type: cell-based
Description: as §1

[3] = system: TLR7/9 signaling pathways; experiment: Effect on TLR7/9 signaling; type: cell-based
Description: as §1

Chain of STING (Q86WV6 whole entry): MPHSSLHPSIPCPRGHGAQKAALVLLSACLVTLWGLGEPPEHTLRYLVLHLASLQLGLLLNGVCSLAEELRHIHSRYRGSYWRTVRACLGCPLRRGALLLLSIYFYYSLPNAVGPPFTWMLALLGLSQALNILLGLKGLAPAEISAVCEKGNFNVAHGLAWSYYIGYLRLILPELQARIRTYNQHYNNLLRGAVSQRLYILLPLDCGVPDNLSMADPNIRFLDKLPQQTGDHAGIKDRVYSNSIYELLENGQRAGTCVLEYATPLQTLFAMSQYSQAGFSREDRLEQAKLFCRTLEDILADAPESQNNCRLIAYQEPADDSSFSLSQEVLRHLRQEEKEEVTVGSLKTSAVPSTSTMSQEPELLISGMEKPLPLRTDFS

Row | Structure (SMILES) | IC50 (STING; read-out: IC50) | further results
1 | COC(=O)CCCCCCCCCCCCCCCn1cnc2nc(Cl)nc(Cl)c21 [Compound 6] |  | inhibition of LPS-induced TLR4/NF-κB activation (TLR4/NF-κB activation): seems to inhibit; IC50 (STING): 1 to 1000 nM; inhibition of 3p-hpRNA-induced RIG-I-IRF/NF-κB signaling pathway [1]: weakly inhibits; inhibition of dsDNA-induced cGAS-STING-IRF/NF-κB signaling pathway [2]: weakly inhibits; effect on TLR7/9 signaling pathways [3]: does not affect
2 | COC(=O)CCCCCCCCCCCCCCn1c(C)nc2nc(Cl)nc(Cl)c21 [Compound 161, Methyl 15-(2,6-dichloro-8-methyl-7H-purin-7-yl)pentadecanoate] | 1 to 1000 nM | 
3 | COC(=O)CCCCCCCCCCCCCCn1c(C)nc2nc(Cl)nc(S(=O)(=O)C(C)C)c21 [Compound 162, Methyl 15-(2-chloro-6-(isopropylsulfonyl)-8-methyl-7H-purin-7-yl)pentadecanoate] | 1 to 1000 nM | 
4 | Cc1nc2nc(Cl)nc(Cl)c2n1CCCCCCCCCCCCCCCCN [Compound 163, 16-(2,6-dichloro-8-methyl-7H-purin-7-yl)hexadecan-1-amine] | 1 to 1000 nM | 
5 | Cc1nc2nc(Cl)nc(S(=O)(=O)C(C)C)c2n1CCCCCCCCCCCCCCCC#N [Compound 164, 16-(2-chloro-6-(isopropylsulfonyl)-8-methyl-7H-purin-7-yl)hexadecanenitrile] | 1 to 1000 nM | 
6 | Cc1nc2nc(Cl)nc(S(=O)(=O)C(C)C)c2n1CCCCCCCCCCCCCCCc1n[nH]c(=O)o1 [Compound 165, 5-(15-(2-chloro-6-(isopropylsulfonyl)-8-methyl-7H-purin-7-yl)pentadecyl)-1,3,4-oxadiazol-2(3H)-one] | 1 to 1000 nM | 
7 | CC(=O)NCCCCCCCCCCCCCCCCn1c(C)nc2nc(Cl)nc(Cl)c21 [Compound 166, N-(16-(2,6-dichloro-8-methyl-7H-purin-7-yl)hexadecyl)acetamide] | 1 to 1000 nM | 
8 | Cc1nc2nc(Cl)nc(S(=O)(=O)C(C)C)c2n1CCCCCCCCCCCCCCCc1noc(=O)n1C [Compound 167, 3-(15-(2-chloro-6-(isopropylsulfonyl)-8-methyl-7H-purin-7-yl)pentadecyl)-4-methyl-1,2,4-oxadiazol-5(4H)-one] | 1 to 1000 nM | 
9 | COC(=O)CCCCCCNCCCCCCCCn1c(C)nc2nc(Cl)nc(S(=O)(=O)C(C)C)c21 [Compound 168, methyl 7-((8-(2-chloro-6-(isopropylsulfonyl)-8-methyl-7H-purin-7-yl)octyl)amino)heptanoate] | 1 to 1000 nM | 

— US20220168309A1 (F-STAR THERAPEUTICS, INC., priority 2019, published 2022)
